Experimental data: ChEMBL document CHEMBL4257492, “Discovery of 2-aminoimidazole and 2-amino imidazolyl-thiazoles as non-xanthine human adenosine A3 receptor antagonists: SAR and molecular modeling studies” (Medchemcomm, 2018)
Active and inactive are the calls of the source. The rule behind the calls is not given here.

Experiments:
[1] = biological target: T1, Adenosine receptor A1 (Homo sapiens) (UniProt P30542); experiment: (§1) Displacement of [3H]CCPA from recombinant human A1 receptor expressed in CHO cell membranes
T1 sequence (whole entry): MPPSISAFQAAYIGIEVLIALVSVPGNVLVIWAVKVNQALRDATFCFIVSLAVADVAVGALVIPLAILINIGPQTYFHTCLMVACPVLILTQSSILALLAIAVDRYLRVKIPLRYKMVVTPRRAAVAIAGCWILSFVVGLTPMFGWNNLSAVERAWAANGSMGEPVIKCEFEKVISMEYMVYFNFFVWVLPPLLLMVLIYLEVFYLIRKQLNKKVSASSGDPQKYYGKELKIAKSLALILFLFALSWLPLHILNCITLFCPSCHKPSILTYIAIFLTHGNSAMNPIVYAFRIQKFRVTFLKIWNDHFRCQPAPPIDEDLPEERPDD

[2] = biological target: T2, Adenosine receptor A2b (Homo sapiens) (UniProt P29275); experiment: Antagonist activity at recombinant human A2B receptor expressed in CHO cell membranes assessed as inhibition of NECA-stimulated adenylyl cyclase activity up to 30 uM; type: functional, cell-based
T2 sequence (whole entry): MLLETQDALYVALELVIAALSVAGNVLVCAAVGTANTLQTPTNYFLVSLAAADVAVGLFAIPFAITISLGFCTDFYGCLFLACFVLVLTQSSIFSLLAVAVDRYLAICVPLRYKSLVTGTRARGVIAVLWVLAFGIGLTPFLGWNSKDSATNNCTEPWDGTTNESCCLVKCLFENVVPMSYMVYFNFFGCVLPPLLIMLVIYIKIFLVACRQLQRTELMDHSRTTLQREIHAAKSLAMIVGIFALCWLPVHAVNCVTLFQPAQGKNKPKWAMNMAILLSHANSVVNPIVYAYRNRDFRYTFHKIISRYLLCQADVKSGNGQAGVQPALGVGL

[3] = biological target: T3, Adenosine receptor A3 (Homo sapiens) (UniProt P0DMS8); experiment: (§2) Displacement of [3H]HEMADO from recombinant human A3 receptor expressed in CHO cell membranes
T3 sequence (whole entry): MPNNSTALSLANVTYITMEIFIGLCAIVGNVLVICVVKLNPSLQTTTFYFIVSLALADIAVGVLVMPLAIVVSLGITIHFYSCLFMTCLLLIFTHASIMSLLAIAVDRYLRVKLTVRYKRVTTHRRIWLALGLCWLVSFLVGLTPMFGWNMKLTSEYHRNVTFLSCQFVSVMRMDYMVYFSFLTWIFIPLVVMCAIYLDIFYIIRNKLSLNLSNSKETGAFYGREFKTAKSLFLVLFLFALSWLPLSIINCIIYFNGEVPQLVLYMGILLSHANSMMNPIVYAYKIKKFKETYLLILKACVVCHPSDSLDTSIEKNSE

Adenosine receptor A1 = biological target: T4, Adenosine receptor A1 (Homo sapiens, UniProt P30542); experiment: as §1
T4 sequence (P30542 whole entry): T1 sequence (whole entry)

Adenosine receptor A3 = biological target: T5, Adenosine receptor A3 (Homo sapiens, UniProt P0DMS8); experiment: as §2
T5 sequence (P0DMS8 whole entry): T3 sequence (whole entry)

Adenosine receptor A2a = Adenosine receptor A2a (Homo sapiens, UniProt P29274); experiment: Displacement of [3H]NECA from recombinant human A2A receptor expressed in CHO cell membranes
Adenosine receptor A2b = biological target: T6, Adenosine receptor A2b (Homo sapiens, UniProt P29275); experiment: Antagonist activity at recombinant human A2B receptor expressed in CHO cell membranes assessed as inhibition of NECA-stimulated adenylyl cyclase activity; type: functional, cell-based
T6 sequence (P29275 whole entry): T2 sequence (whole entry)

Homo sapiens [4] = species on record: Homo sapiens; experiment: Selectivity ratio of Ki for displacement of [3H]CCPA from recombinant human A1 receptor expressed in CHO cell membranes to displacement of [3H]HEMADO from recombinant human A3 receptor expressed in CHO cell membranes
Homo sapiens [5] = species on record: Homo sapiens; experiment: Selectivity ratio of Ki for displacement of [3H]NECA from recombinant human A2A receptor expressed in CHO cell membranes to displacement of [3H]HEMADO from recombinant human A3 receptor expressed in CHO cell membranes

Sequence of Adenosine receptor A2a (P29274 whole entry): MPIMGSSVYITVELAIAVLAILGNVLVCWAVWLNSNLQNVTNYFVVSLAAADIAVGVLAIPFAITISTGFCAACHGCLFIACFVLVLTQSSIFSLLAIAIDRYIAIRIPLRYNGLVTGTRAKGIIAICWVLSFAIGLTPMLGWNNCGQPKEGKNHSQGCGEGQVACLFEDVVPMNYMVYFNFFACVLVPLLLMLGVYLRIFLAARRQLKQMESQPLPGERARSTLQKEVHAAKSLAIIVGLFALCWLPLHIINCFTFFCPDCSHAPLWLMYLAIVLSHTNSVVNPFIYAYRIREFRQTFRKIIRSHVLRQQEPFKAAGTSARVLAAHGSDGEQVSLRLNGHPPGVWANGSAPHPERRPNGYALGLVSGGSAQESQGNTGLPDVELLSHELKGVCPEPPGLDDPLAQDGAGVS

SMILES | inhibition [1] | inhibition [2] | inhibition [3] | Ki (Adenosine receptor A1) | Ki (Adenosine receptor A3) | Ki (Adenosine receptor A2a) | Ki (Adenosine receptor A2b) | Ratio Ki (Homo sapiens [4]) | Ratio Ki (Homo sapiens [5])
COc1ccc(C(=O)c2cnc(N)n2-c2ccc(F)cc2)cc1 | inactive | inactive | inactive |  |  |  |  |  | 
Nc1ncc(C(=O)c2ccncc2)n1-c1ccc(C(F)(F)F)cc1 | inactive | inactive |  |  |  |  |  |  | 
Cc1ccc(Nc2nc(C)c(C(=O)c3cnc(N)n3-c3ccc(F)cc3)s2)cc1 |  |  |  | 37.5 µM | 0.487 µM | 12.4 µM | > 10 µM | 20 to 40 | 20 to 40
Nc1ncc(C(=O)c2ccc(Cl)cc2)n1-c1ccc(F)c(Cl)c1 | inactive | inactive | Active |  |  |  |  |  | 
COc1ccc(-n2c(C(=O)c3sc(Nc4ccccc4)nc3C)cnc2N)cc1 |  |  |  | 48.6 µM | 0.574 µM | 13.4 µM | > 10 µM | 20 to 40 | 20 to 40
Cc1nc(Nc2ccccc2)sc1C(=O)c1cnc(N)n1-c1ccc(Cl)cc1 |  |  |  | 33.5 µM | 0.802 µM | 11.2 µM | > 10 µM |  | 
Cc1nc(Nc2ccccc2)sc1C(=O)c1cnc(N)n1-c1ccc(F)cc1 |  |  |  | 39.2 µM | 0.19 µM | 8.04 µM | > 10 µM | 200 | 40
Nc1ncc(C(=O)c2sc(Nc3ccccc3)nc2-c2ccccc2)n1-c1ccc(F)cc1 |  |  |  | 6.71 µM | 0.305 µM | 7.41 µM | > 10 µM | 20 to 40 | 20 to 40
COc1ccc(-n2c(C(=O)c3sc(Nc4ccc(Cl)cc4)nc3C)cnc2N)cc1 |  |  |  | 33.3 µM | 1.6 µM | 10.3 µM | > 10 µM |  | 
COc1ccc(-n2c(C(=O)c3sc(Nc4ccccc4)nc3-c3ccccc3)cnc2N)cc1 |  |  |  | 3.67 µM | 0.326 µM | 8.84 µM | > 10 µM |  | 
Nc1ncc(C(=O)c2ccc(Cl)cc2)n1-c1ccc(F)cc1 | inactive | inactive | inactive |  |  |  |  |  | 
Nc1ncc(C(=O)c2ccncc2)n1-c1ccc(Cl)cc1 | inactive | inactive | Active |  |  |  |  |  | 
Cc1ccc(C(=O)c2cnc(N)n2-c2cccc(Cl)c2)cc1 | inactive | inactive | Active |  |  |  |  |  | 
Nc1ncc(C(=O)c2ccncc2)n1-c1ccc(F)cc1 | inactive | inactive |  |  |  |  |  |  | 
Cc1ccc(-n2c(C(=O)c3sc(N4CCOCC4)nc3-c3ccccc3)cnc2N)cc1 |  |  |  | > 100 µM | 17.8 µM | 34 µM | > 10 µM |  | 
CN(C)c1nc(NC(=O)c2ccccc2)sc1C(=O)c1cnc(N)n1-c1ccc(Cl)cc1 |  |  |  | 25.4 µM | 4.32 µM | 11.8 µM | > 10 µM |  | 
COc1ccc(-n2c(C(=O)c3sc(N4CCOCC4)nc3-c3ccccc3)cnc2N)cc1 |  |  |  | > 100 µM | 13 µM | > 100 µM | > 10 µM |  | 
Cc1ccc(C(=O)c2cnc(N)n2-c2ccc(F)cc2)cc1 | inactive | inactive | inactive |  |  |  |  |  | 
CN(C)c1nc(NC(=O)c2ccccc2)sc1C(=O)c1cnc(N)n1-c1ccc(C(F)(F)F)cc1 |  |  |  | 19.7 µM | 4.92 µM | 16.7 µM | > 10 µM |  | 
Cc1nc(Nc2ccc(Cl)cc2)sc1C(=O)c1cnc(N)n1-c1ccc(F)cc1 |  |  |  | 19.8 µM | 0.871 µM | 13 µM | > 10 µM |  | 
Cc1ccc(C(=O)c2cnc(N)n2-c2ccc(Cl)cc2)cc1 | inactive | inactive | inactive |  |  |  |  |  | 
CS(=O)(=O)c1ccc(C(=O)c2cnc(N)n2-c2ccccc2)cc1 | inactive | inactive | Active |  |  |  |  |  | 
Nc1ncc(C(=O)c2ccc(Cl)cc2)n1-c1ccc(C(F)(F)F)cc1 | inactive | inactive | Active |  |  |  |  |  | 
Cc1ccc(C(=O)c2cnc(N)n2-c2ccccc2Cl)cc1 | inactive | inactive | Active |  |  |  |  |  | 
